Experimental data published in US20090105562A1, “SYSTEM AND METHODS FOR SCREENING OR ANALYZING TARGETS” (TAIPEI VETERANS GENERAL HOSPITAL, priority 2007, published 2009).

Legend:
Format in all cases: cell-based, rat
NSCs = test: Triple-staining immunofluorescent assay of NSC differentiation into serotoninergic neurons
Protocol: All animals used were treated in accordance with the Animal Care and Use Committee guideline at Taipei Veterans General Hospital. The protocol of the present study was also approved by the committee. Adult Sprague-Dawley (SD) rats (8 weeks old, 250 g) were anesthetized with intraperitoneal phenobarbital (Sigma, USA), and the location of their brains was mapped. Then, the brain was surgically separated from the hippocampus region. In brief, tissues from the hippocampus of adult rats were dissociated and incubated in Hank's balanced salt solution (HBSS) containing collagenase (78 units/ml) and hyaluronidase (38 units/ml) for 10 minutes at 37° C. The tissues were then mechanically dissected and placed in a trypsin solution (1.33 mg/ml) at 37° C. for another 10 minutes. Dissociated cells were then centrifuged at […] for 5 minutes. Then the enzyme solution was removed and replaced with serum-free culture media composed of Dulbecco Modified Eagle Medium (DMEM) and F-12 nutrient mixture (1:1) including insulin (25 μg/mL), transferrin (100 μg/mL), progesterone (20 nM), putrescine (60 μM), sodium selenite (30 nM), human recombinant epidermal growth factor (EGF) 20 ng/mL, and fibroblast growth factor-basic (bFGF) (20 ng/mL) (R&D Systems, Minneapolis, Minn., USA). Viable cells were counted by trypan blue exclusion and plated as 5000 cells/200 μL per well in 96-well plates (Corning Inc, Acton, Mass., USA) with no substrate pretreatment. The IM was purchased from Sigma Chem. Co., St Louis, Mo., USA. The 0.1% dimethyl sulfoxide (DMSO) (Sigma Chem. Co., St Louis, Mo., USA) was used as a vehicle control in all procedures and studies. For differentiation protocol, the neurosphere NSCs were plated on poly-L-ornithine-coated (15 μg/mL) glass coverslips in individual wells of 24-well plates (1.0 mL/well) in DMEM/F-12 medium containing 2% fetal calf serum (FCS) (Gibcol-BRL, Gaitherburg, Md., USA) and withdrawing EGF and bFGF At the time of NSCs seeding, vehicle control or IM treatment was concurrently added.
An avidin-biotin complex method was used for the immunohistochemical staining in the differentiated NSCs. Following washes with the 3% hydrogen peroxide, sodium azide and antigens were retrieved using a microwave. […] Immunoreactive signals were detected with a mixture of biotinylated rabbit anti-mouse IgG and Fluoresave (Calbiochem, La Jolla, Calif., USA) under confocal microscopy (Olympus, FV300). Each individual sample was analyzed in triplicate. […] The percentage of TUNEL-positive cells was measured by the average of 6 different areas as compared to the total cell number in the same section slide (under a×200 power field of a light microscope).

LPS-treated NSCs [1] = test: ELISA of IL-1β, IL-6 and TNF-α in LPS-treated NSCs
Protocol: (§1) IM was purchased from Sigma Chem. Co., St Louis, Mo., USA. NSCs were seeded on 24-well plates at a density of 2×10^4 cells/well in medium, followed by methyl thiazol tetrazolium assay (MTT assay) (Sigma-Aldrich Co., St Louis, Mo., USA) for cell viability. NSCs were incubated with 0.25 mg/ml MTT for 4 hours at 37° C. and the reaction was terminated by the addition of 100% isopropanol. The amount of MTT fromazon product was determined using a microplate reader and the absorbance was measured at 560 nm (SpectraMax 250, Molecular Devices, Sunnyvale, Calif., USA). NSCs were exposed to 0, 1, 2, 5, 10, 20, 30, 40, 50, 100, 200, and 300 μM of IM for 1, 3, 5, and 7 days, respectively. The activities of caspases 8 and 3 (Medical and Biological Laboratories Co., Ltd., Nagoya, Japan), and the concentration of IL-6, IL-1 and TNF-α (Pharmingen, San Diego, Calif., USA) were determined by ELISA kits and quantified by reading at 490 nm (MRX; Dynatech Laboratories, Chantilly, Va., USA). Each individual sample was analyzed in triplicate.
(§2) Double-stranded, short interfering RNA (siRNA) of BDNF and Bcl-2 were chemically synthesized by Ambion Inc., Austin, Tex., USA). The sense and antisense sequences of BDNF were designed as follows: Sense: […]tt; Antisense: AGCTTAAAAAGAG CTGtt, starting from nucleotide 137 of the Bcl-2 sequence (accession number L14680). The sense and antisense sequences of Bcl-2 were designed as follows: Sense: GCGCUGGAUAUAACUUCUUtt; Antisense: AAGAAGUUAUAUC CAGCGCtt, starting from nucleotide 137 of the Bcl-2 sequence (accession number L14680). In this test, the siRNA control used was siRNA-Cy3 (QIAGEN; sense sequence: UUCUCCGAACGUGU CACGUdTdT-3′-Cy3 and the complement 5′-ACGUGACACGUUCGGAGAAdTdT-3′-Cy3) as an irrelevant control. The transfection of siRNA was performed using Lipofectamine 2000 (Invitrogen, Carlsbad, Calif., USA) according to the manufacturer's instructions. In brief, cells were harvested with 0.25% trypsin, 1 mM ethylenediaminetetraacetic acid (EDTA) in phosphate buffered saline (PBS) without Ca^2+ and Mg^2+, and plated in six-well plates at 10^5 per cm^2. Then 3.5 μl siRNA (100 μM solution) was mixed with 125 μl serum-free culture medium for 5 minutes at room temperature. During this incubation period, 5 μl of Lipofectamine 2000 was diluted in 125 μl serum-free culture medium. These two mixtures were combined, mixed gently, and incubated for 20 minutes at room temperature for complex formation. This 250 μl of siRNA-Lipofectamine mixture was then added into the cells in a final volume of 2.5 ml per well. The transfected cells were cultured and fed daily with fresh medium until they were assayed.

LPS-treated NSCs [2] = test: LPS-induced apoptotic activity in NSCs, caspase 8 and 3 ELISA
Protocol: as §1, §2

LPS-treated NSCs [3] = test: TUNEL assay of LPS-induced apoptosis in NSCs; conditions: IM treatment vs without IM
Protocol: An avidin-biotin complex method was used for the immunohistochemical staining in the differentiated NSCs. Following washes with the 3% hydrogen peroxide, sodium azide and antigens were retrieved using a microwave. Each slide was then treated with antibodies for Bcl-2 (Upstate Biotechnology, Waltham, Mass., USA), Nestin (Chemicon, Temecula, Calif., USA), 4′, 6-diamidino-2-phenylindole (DAPI; Chemicon, Temecula, Calif., USA) and MAP2 (Chemicon, Temecula, Calif., USA). Immunoreactive signals were detected with a mixture of biotinylated rabbit anti-mouse IgG and Fluoresave (Calbiochem, La Jolla, Calif., USA) under confocal microscopy (Olympus, FV300). Each individual sample was analyzed in triplicate. Furthermore, apoptotic cells were identified by the TUNEL method (In Situ Cell Death Detection Kit, POD, Roche Boehringer Mannheim Corp., IN, USA) as described in Chiou et al., J. Immunol. 167, 4098-4103, 2001. Briefly, the cells with cover slips were washed with 1× phosphate buffered saline (PBS), fixed with 4% of paraformaldehyde for 10 minutes, permeabilized with 0.1% of triton X-100 for 5 mins, and incubated with the TUNEL reagent provided for 1 hour. […] The percentage of TUNEL-positive cells was measured by the average of 6 different areas as compared to the total cell number in the same section slide (under a×200 power field of a light microscope).

[4] = Day 7 culture of IM-treated vs non IM-treated NSCs, p<0.05
[5] = vs only LPS-treated NSCs, IM 3 μM, p<0.05
[6] = LPS (100 ng/ml) exposure, Day 7 IM-treated vs without IM, p<0.05
[7] = agent added, Day 7 culture of IM-treated NSCs
[8] = agent added to LPS-treated NSCs with IM, U0126 40 μM

| apoptotic activity of caspase 3 (LPS-treated NSCs [2]; [6]) | apoptotic activity of caspase 8 (LPS-treated NSCs [2]; [6]) | SMILES | percentage of MAP-2-positive cells (NSCs; [4]) | percentage of serotonin (5-HT)-positive cells (NSCs; [4]) | IL-1β production in LPS-treated NSCs (LPS-treated NSCs [1]; [5]) | IL-6 production in LPS-treated NSCs (LPS-treated NSCs [1]; [5]) | TNF-α production in LPS-treated NSCs (LPS-treated NSCs [1]; [5]) | LPS-induced apoptosis in NSCs (TUNEL assay) (LPS-treated NSCs [3]) | percentage of MAP-2-positive cells in IM-treated NSCs (NSCs; [7]) | percentage of serotonin (5-HT)-positive cells in IM-treated NSCs (NSCs; [7]) | level of IL-1β in LPS-treated NSCs with IM (LPS-treated NSCs [1]; [8]) | level of IL-6 in LPS-treated NSCs with IM (LPS-treated NSCs [1]; [8]) | level of TNF-α in LPS-treated NSCs with IM (LPS-treated NSCs [1]; [8]) | apoptotic activities (caspase 8, caspase 3 and TUNEL assays) in LPS- and IM-treated NSCs (LPS-treated NSCs [2]; agent added to LPS- and IM-treated NSCs, U0126 40 μM) |
| --- | --- | --- | --- | --- | --- | --- | --- | --- | --- | --- | --- | --- | --- | --- |
| significantly decreased | significantly decreased | CN(C)CCCN1c2ccccc2CCc2ccccc21 [IM, imipramine] | significantly increased | significantly increased | effectively reduces | effectively reduces | effectively reduces | protected against LPS-induced apoptosis |  |  |  |  |  |  |
|  |  | N#CC(=C(/N)Sc1ccccc1N)/C(C#N)=C(\N)Sc1ccccc1N [U0126] |  |  |  |  |  |  | significantly decrease | significantly decrease | significantly increased | significantly increased | significantly increased | significantly enhanced |
